In this test the target is thrombin (Homo sapiens, UniProt P00734). In words: Fibrin-Clot Assay. Format: biochemical.
[1] abbreviates: read-out: IC50 Fibrin-Clot Assay.
Setting [2] is: read-out: IC50 Fibrin-Clot Assay (class symbol).

pIC50: −log10 of the molar value. Read-outs that look alike come from different tables or passages of the source. Numbered stars: 1 amine (or outer) side, 2 acyl side, 3 side chain; on linkers, the order of the positions; unused ones are H or OH. Suc = O=C(CCC(=O)[*:2])[*:1]; Pnh(SO3) = not defined here Some results are limits rather than exact numbers.

What is called pIC50 is the IC50 on a negative log10 scale, so that one unit is a factor of ten. In the case of “Suc-Tyr(SO3 H)-Glu-Pro-Ile-Pro-Glu-Glu-Ala-Cha-D-Glu-OH [Example 5]”, the pIC50 is, setting by setting: under setting [1], 5.77; under setting [2], above 5.30.

Consider “Suc-Tyr-Glu-Pro-Ile-Pro-Glu-Glu-Phe(pNHSO3 H)-D-Glu-OH [Example 3]”, for which, under setting [1], the pIC50 was 6.92.

Turning to `CC[C@H](C)[C@H](NC(=O)[C@@H]1CCCN1C(=O)[C@H](COS(=O)(=O)O)NC(=O)[C@H](Cc1ccc(O)cc1)NC(=O)CCC(=O)O)C(=O)N1CCC[C@H]1C(=O)N[C@@H](COS(=O)(=O)O)C(=O)N[C@@H](COS(=O)(=O)O)C(=O)N[C@@H](C)C(=O)N[C@@H](CC1CCCCC1)C(=O)N[C@@H](COS(=O)(=O)O)C(=O)O` [Example 8, Suc-Tyr-Ser(SO3 H)-Pro-Ile-Pro-Ser(SO3 H)-Ser(SO3 H)-Ala-Cha-Ser(SO3 H)-OH], the pIC50 runs as follows: under setting [1], 6.68; under setting [2], above 5.30.

`CC[C@H](C)[C@H](NC(=O)[C@@H]1CCCN1C(=O)[C@H](CCC(=O)O)NC(=O)[C@H](Cc1ccc(NS(=O)(=O)O)cc1)NC(=O)CCC(=O)O)C(=O)N1CCC[C@H]1C(=O)N[C@@H](CCC(=O)O)C(=O)N[C@@H](CCC(=O)O)C(=O)N[C@@H](C)C(=O)N[C@@H](CC1CCCCC1)C(=O)N[C@H](CCC(=O)O)C(=O)O` [Example 4, Suc-Phe(pNHSO3 H)-Glu-Pro-Ile-Pro-Glu-Glu-Ala-Cha-D-Glu-OH]: the negative-log IC50 (pIC50) reads like this: under setting [1], 4.89; under setting [2], above 4.60.

As to “Suc-Tyr-Pro-Ile-Pro-Glu-Glu-Ala-Pnh(SO3)-D-Glu-OH (Suc-YPIPEEA-{Pnh(SO3)-dE-OH}; reading uncertain; also: printed as Suc-Tyr-Pro-Ile-Pro-Glu-Glu-Ala-Pnh(SO3)-D-Glu-OH) [Example 1]”, the pIC50 reads like this: under setting [1], 5.60; under setting [2], above 5.30.

`CC[C@H](C)[C@H](NC(=O)[C@@H]1CCCN1C(=O)[C@H](CCC(=O)O)NC(=O)[C@H](Cc1ccc(OS(=O)(=O)O)cc1)NC(=O)CCC(=O)O)C(=O)N1CCC[C@H]1C(=O)N[C@@H](CCC(=O)O)C(=O)N[C@@H](CCC(=O)O)C(=O)N[C@@H](C)C(=O)N[C@@H](Cc1ccc(NS(=O)(=O)O)cc1)C(=O)N[C@H](CCC(=O)O)C(=O)O` [Example 2, Suc-TVr(SO3 H)-Glu-Pro-Ile-Pro-Glu-Glu-Ala-Phe(pNHSO3 H)-D-Glu-OH]: the pIC50 reads like this: under setting [1], 4.82; under setting [2], above 4.60.

Values taken from US5541161A, “Stabilized sulfonate, sulfate, phosphonate and phosphate derivatives of hirudin” (Merrell Pharmaceuticals Inc., priority 1993, dated 1996).
